For 20 substances, EC50 results are on record in US10150760B2, “Compounds for use in preparing heterocyclic triazole agonists of the APJ receptor” (AMGEN INC., priority 2016, dated 2018).

Usually EC50 stands for the midpoint of the concentration-response curve.

human APJ receptor, sequence (P35414 whole entry): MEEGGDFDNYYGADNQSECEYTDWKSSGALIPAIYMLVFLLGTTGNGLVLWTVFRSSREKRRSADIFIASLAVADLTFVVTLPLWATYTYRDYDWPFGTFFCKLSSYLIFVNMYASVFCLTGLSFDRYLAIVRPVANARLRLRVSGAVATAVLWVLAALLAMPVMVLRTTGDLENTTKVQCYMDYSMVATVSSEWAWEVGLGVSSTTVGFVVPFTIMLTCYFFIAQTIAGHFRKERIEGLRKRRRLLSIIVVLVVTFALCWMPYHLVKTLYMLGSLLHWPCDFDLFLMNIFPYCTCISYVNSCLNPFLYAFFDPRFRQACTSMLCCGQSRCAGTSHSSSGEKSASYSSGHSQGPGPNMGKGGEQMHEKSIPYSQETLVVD

The assay addresses human APJ receptor (Homo sapiens (Human), UniProt P35414). In words: [35S]GTPγS binding assay on membranes from CHO cells stably expressing human APJ receptor. To be noted: read-out: Activity hAPJ SPA EC50 IP. The class given is biochemical. The method, boiled down:
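Agonist-driven [35S]GTPγS (0.2 nM) binding was measured over 90 min at room temperature on human APJ-expressing CHO membranes with bead capture, in buffer containing 3 μM GDP, 200 mM NaCl and 5 mM MgCl2 (pH 7.5). Excess unlabelled GTPγS (100 μM) gave nonspecific signal; EC50 from non-linear fits.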
In general terms: GTPγS is a poorly hydrolysed GTP analogue; its binding reports G protein activation.
For “(2R)-N-(4-(2,6-dimethoxyphenyl)-5-(tetrahydro-2H-pyran-4-yl)-4H-1,2,4-triazol-3-yl)-1-(5-fluoro-2-pyrimidinyl)-2-propanesulfonamide and (2S)-N-(4-(2,6-dimethoxyphenyl)-5-(tetrahydro-2H-pyran-4-yl)-4H-1,2,4-triazol-3-yl)-1-(5-fluoro-2-pyrimidinyl)-2-propanesulfonamide [Example 15.0]”, the concentration for a half-maximal effect (EC50) came out at 470 nM.

As for “(2R)-N-(4-(2,6-dimethoxyphenyl)-5-(tetrahydro-2H-pyran-4-yl)-4H-1,2,4-triazol-3-yl)-1-(5-fluoro-2-pyrimidinyl)-2-propanesulfonamide or (2S)-N-(4-(2,6-dimethoxyphenyl)-5-(tetrahydro-2H-pyran-4-yl)-4H-1,2,4-triazol-3-yl)-1-(5-fluoro-2-pyrimidinyl)-2-propanesulfonamide [Example 16.0]”, the EC50 amounted to 380 nM.

Consider “(2R)-N-(4-(2,6-dimethoxyphenyl)-5-(tetrahydro-2H-pyran-4-yl)-4H-1,2,4-triazol-3-yl)-1-(5-fluoro-2-pyrimidinyl)-2-propanesulfonamide or (2S)-N-(4-(2,6-dimethoxyphenyl)-5-(tetrahydro-2H-pyran-4-yl)-4H-1,2,4-triazol-3-yl)-1-(5-fluoro-2-pyrimidinyl)-2-propanesulfonamide [Example 17.0]”, for which the EC50 worked out at 810 nM.

“(2R,3S)-N-(4-(2,6-dimethoxyphenyl)-5-((S)-tetrahydrofuran-2-yl)-4H-1,2,4-triazol-3-yl)-3-(5-methylpyrimidin-2-yl)butane-2-sulfonamide or (2R,3S)-N-(4-(2,6-dimethoxyphenyl)-5-((R)-tetrahydrofuran-2-yl)-4H-1,2,4-triazol-3-yl)-3-(5-methylpyrimidin-2-yl)butane-2-sulfonamide [Example 219.0]”: the EC50 is 220 nM.

For the substance “(2R,3S)-N-(4-(2,6-dimethoxyphenyl)-5-((S)-tetrahydrofuran-2-yl)-4H-1,2,4-triazol-3-yl)-3-(5-methylpyrimidin-2-yl)butane-2-sulfonamide or (2R,3S)-N-(4-(2,6-dimethoxyphenyl)-5-((R)-tetrahydrofuran-2-yl)-4H-1,2,4-triazol-3-yl)-3-(5-methylpyrimidin-2-yl)butane-2-sulfonamide [Example 220.0]”, the EC50 was 510 nM.

For “(2S,3R)-3-(5-Chloropyrimidin-2-yl)-N-(4-(3,5-dibromo-2,6-dimethoxyphenyl)-5-((R)-tetrahydrofuran-3-yl)-4H-1,2,4-triazol-3-yl)butane-2-sulfonamide or (2S,3R)-3-(5-chloropyrimidin-2-yl)-N-(4-(3,5-dibromo-2,6-dimethoxyphenyl)-5-((S)-tetrahydrofuran-3-yl)-4H-1,2,4-triazol-3-yl)butane-2-sulfonamide [Example 254.0]”, the EC50 was determined as 310 nM.

Consider “(2S,3R)-3-(5-chloro-2-pylimidinyl)-N-(4-(1,3-dimethoxy-2-propanyl)-5-((2R,5R)-5-methyltetrahydro-2-furanyl)-4H-1,2,4-triazol-3-yl)-2-butanesulfonamide or (2S,3R)-3-(5-chloro-2-pyrimidinyl)-N-(4-(1,3-dimethoxy-2-propanyl)-5-((2S,5S)-5-methyltetrahydro-2-furanyl)-4H-1,2,4-triazol-3-yl)-2-butanesulfonamide [Example 375.0]”, for which the EC50 turned out to be 92 nM.

As for “(2S,3R)-3-(5-chloro-2-pyridinyl)-N-(4-(1,3-dimethoxy-2-propanyl)-5-((2R,5R)-5-methyltetrahydro-2-furanyl)-4H-1,2,4-triazol-3-yl)-2-butanesulfonamide or (2S,3R)-3-(5-chloro-2-pyridinyl)-N-(4-(1,3-dimethoxy-2-propanyl)-5-((2S,5S)-5-methyltetrahydro-2-furanyl)-4H-1,2,4-triazol-3-yl)-2-butanesulfonamide [Example 372.0]”, the EC50 was 240 nM.

As for “(2S,3R)-3-(5-chloro-2-pyridinyl)-N-(4-(1,3-dimethoxy-2-propanyl)-5-((2R,5R)-5-methyltetrahydro-2-furanyl)-4H-1,2,4-triazol-3-yl)-2-butanesulfonamide or (2S,3R)-3-(5-chloro-2-pyridinyl)-N-(4-(1,3-dimethoxy-2-propanyl)-5-((2S,5S)-5-methyltetrahydro-2-furanyl)-4H-1,2,4-triazol-3-yl)-2-butanesulfonamide [Example 373.0]”, the EC50 is 8 nM.

Consider “(2S,3R)-3-(5-chloro-2-pyrimidinyl)-N-(4-(1,3-dimethoxy-2-propanyl)-5-((2R,5R)-5-methyltetrahydro-2-furanyl)-4H-1,2,4-triazol-3-yl)-2-butanesulfonamide or (2S,3R)-3-(5-chloro-2-pyrimidinyl)-N-(4-(1,3-dimethoxy-2-propanyl)-5-((2S,5S)-5-methyltetrahydro-2-furanyl)-4H-1,2,4-triazol-3-yl)-2-butanesulfonamide [Example 374.0]”, for which the EC50 stood at 5.6 nM.

With “(2S,3R)-3-(5-chloropyrimidin-2-yl)-N-(4-(2,6-dimethoxyphenyl)-5-((R)-1,1-dioxidotetrahydrothiophen-3-yl)-4H-1,2,4-triazol-3-yl)butane-2-sulfonamide or (2S,3R)-3-(5-chloropyrimidin-2-yl)-N-(4-(2,6-dimethoxyphenyl)-5-((S)-1,1-dioxidotetrahydrothiophen-3-yl)-4H-1,2,4-triazol-3-yl)butane-2-sulfonamide [Example 189.0]”, the half-maximal effective concentration (EC50) stood at 200 nM.

As to “(2S,3R)-3-(5-chloropyrimidin-2-yl)-N-(4-(2,6-dimethoxyphenyl)-5-((R)-1,1-dioxidotetrahydrothiophen-3-yl)-4H-1,2,4-triazol-3-yl)butane-2-sulfonamide or (2S,3R)-3-(5-chloropyrimidin-2-yl)-N-(4-(2,6-dimethoxyphenyl)-5-((S)-1,1-dioxidotetrahydrothiophen-3-yl)-4H-1,2,4-triazol-3-yl)butane-2-sulfonamide [Example 190.0]”, the concentration giving a half-maximal response (EC50) is 300 nM.

With “(2S,3R)-3-(5-chloropyrimidin-2-yl)-N-(4-(2,6-dimethoxyphenyl)-5-((R)-3-oxoisoindolin-1-y1)-4H-1,2,4-triazol-3-yl)butane-2-sulfonamide or (2S,3R)-3-(5-chloropyrimidin-2-yl)-N-(4-(2,6-dimethoxyphenyl)-5-((S)-3-oxoisoindolin-1-yl)-4H-1,2,4-triazol-3-yl)butane-2-sulfonamide [Example 235.0]”, the 50% effective concentration (EC50) came to 830 nM.

Turning to “(2S,3R)-3-(5-chloropyrimidin-2-yl)-N-(4-(2,6-dimethoxyphenyl)-5-((S)-3-oxoisoindolin-1-yl)-4H-1,2,4-triazol-3-yl)butane-2-sulfonamide or (2S,3R)-3-(5-chloropyrimidin-2-yl)-N-(4-(2,6-dimethoxyphenyl)-5-((R)-3-oxoisoindolin-1-yl)-4H-1,2,4-triazol-3-yl)butane-2-sulfonamide [Example 234.0]”, the concentration for a half-maximal effect (EC50) turned out to be 230 nM.

Consider “(2S,3R)-3-(5-chloropyrimidin-2-yl)-N-(4-(3,5-dibromo-2,6-dimethoxyphenyl)-5-((R)-tetrahydrofuran-3-yl)-4H-1,2,4-triazol-3-yl)butane-2-sulfonamide or (2S,3R)-3-(5-chloropyrimidin-2-yl)-N-(4-(3,5-dibromo-2,6-dimethoxyphenyl)-5-((S)-tetrahydrofuran-3-yl)-4H-1,2,4-triazol-3-yl)butane-2-sulfonamide [Example 331.0]”, for which the 50% effective concentration (EC50) was 3500 nM.

As to “(2S,3R)-3-(5-chloropyrimidin-2-yl)-N-(4-(4,6-dimethoxypyrimidin-5-yl)-5-((R)-5,5-dimethyltetrahydrofuran-3-yl)-4H-1,2,4-triazol-3-yl)butane-2-sulfonamide or (2S,3R)-3-(5-chloropyrimidin-2-yl)-N-(4-(4,6-dimethoxypyrimidin-5-yl)-5-((S)-5,5-dimethyltetrahydrofuran-3-yl)-4H-1,2,4-triazol-3-yl)butane-2-sulfonamide [Example 317.0]”, the EC50 was 52 nM.

Regarding “(2S,3R)-3-(5-chloropyrimidin-2-yl)-N-(4-(4,6-dimethoxypyrimidin-5-yl)-5-((R)-5,5-dimethyltetrahydrofuran-3-yl)-4H-1,2,4-triazol-3-yl)butane-2-sulfonamide or (2S,3R)-3-(5-chloropyrimidin-2-yl)-N-(4-(4,6-dimethoxypyrimidin-5-yl)-5-((S)-5,5-dimethyltetrahydrofuran-3-yl)-4H-1,2,4-triazol-3-yl)butane-2-sulfonamide [Example 318.0]”, the EC50 was 13 nM.

For the substance “(2S,3R)-N-(4-(1,3-dimethoxy-2-propanyl)-5-((2R,5R)-5-methyltetrahydro-2-furanyl)-4H-1,2,4-triazol-3-yl)-3-(5-fluoro-2-pyrimidinyl)-2-butanesulfonamide or (2S,3R)-N-(4-(1,3-dimethoxy-2-propanyl)-5-((2S,5S)-5-methyltetrahydro-2-furanyl)-4H-1,2,4-triazol-3-yl)-3-(5-fluoro-2-pyrimidinyl)-2-butanesulfonamide [Example 368.0]”, the concentration for a half-maximal effect (EC50) is 100 nM.

Consider “(2S,3R)-N-(4-(1,3-dimethoxy-2-propanyl)-5-((2R,5R)-5-methyltetrahydro-2-furanyl)-4H-1,2,4-triazol-3-yl)-3-(5-fluoro-2-pyrimidinyl)-2-butanesulfonamide or (2S,3R)-N-(4-(1,3-dimethoxy-2-propanyl)-5-((2S,5S)-5-methyltetrahydro-2-furanyl)-4H-1,2,4-triazol-3-yl)-3-(5-fluoro-2-pyrimidinyl)-2-butanesulfonamide [Example 369.0]”, for which the concentration for a half-maximal effect (EC50) was 21 nM.

As to “(2S,3R)-N-(4-(1,3-dimethoxy-2-propanyl)-5-((2R,5R)-5-methyltetrahydro-2-furanyl)-4H-1,2,4-triazol-3-yl)-3-(5-methoxy-2-pyrazinyl)-2-butanesulfonamide or (2S,3R)-N-(4-(1,3-dimethoxy-2-propanyl)-5-((2S,5S)-5-methyltetrahydro-2-furanyl)-4H-1,2,4-triazol-3-yl)-3-(5-methoxy-2-pyrazinyl)-2-butanesulfonamide [Example 376.0]”, the concentration giving a half-maximal response (EC50) came to 120 nM.
